Measurements as given in patent US8993257B2, “System and method for studying epidermis samples ex vivo” (University of Rochester, priority 2012, dated 2015).

Experiments:
[1] = system: intact human epidermis samples; conditions: Histamine 100 μM; evaluated at 10, 20 and 30 minutes; epidermis isolated with dispase; FIG. 5
Description: The invention will allow measuring epidermal barrier integrity by evaluating transepithelial electric resistance (TEER), using a planar electrode (for example, Endohm-Snap; World Precision Instruments, Sarasota, Fla., USA), and a paracellular flux assay of for example, fluorescently labeled probes of different radii and sizes. Probes can be added to the upper well, and samples will be collected in the lower well over time to determine the paracellular flux. The amount of fluorescent probes that diffuse across the epidermis sample can be measured using an appropriate fluorometer or spectrophotometer.
The filter 206 of the original detachable ring 204 in the Snapwell™ (Corning, 3407) is replaced by a sandwich system 302 having two Plexiglas (or any other suitable material) inserts 304, with the epidermis/skin sample 306 lying in between them on a filter paper 308 (Nucleopore Track-etched, #110407; 13 mm diameter & pore: 0.4 μm) so that it covers the opening. The skin sample 306 is inserted with epidermis side up. Each of the inserts 304 has a hole 310 formed therein with a diameter of 0.3 cm and an area of 0.0707 cm^2. As in the conventional Snapwell™ system, the sandwich system is 302 is placed between an upper well 312 having a medium 314 and a lower well 316 having a medium 318. A volt-ohm meter 320 is connected between the two media. […]

[2] = system: barrier-disrupted human epidermis; assay: TEER of tape stripped (barrier-disrupted) human epidermis in the system; assay type: cell-based; conditions: compared with media alone
Description: (§1) The Weck blade is held at a 30-45° angle from the donor skin (e.g. living subject or discarded skins from plastic surgery procedures) surface, while a gentle traction behind the blade is provided by the other hand. Using different depths (e.g. […]), based on the skin sample source (e.g. based on differences in epidermal depth in different anatomical areas as well as species-specific differences), we can effectively isolate intact, full thickness epidermal samples with minimal to no dermis (e.g. subepithelial tissue). The epidermis is removed using that Weck surgical blade, cut into smaller samples to fit the apparatus and placed in a calcium-containing buffer until it is mounted in the device.
(§2) We have also used the invention to test the effect of cytokines relevant to human disease on epidermal barrier function recovery. Human discarded skin was tape stripped to induce a barrier impairment, this barrier-disrupted epidermis was isolated using the Weck blade and placed into the system. Samples were than treated for 24 h with human recombinant IL17A, a prototypic cytokine commonly found within the skin lesions of psoriasis (FIG. 6) or the Th2 cytokines, IL4 and IL13, commonly found in atopic dermatitis (FIG. 7). After 24 h treatment with human recombinant IL17A (50 and 100 ng/ml), TEER was increased, and paracellular flux was reduced as compared with a sample treated with media alone. Those data indicated IL17A enhanced epidermal barrier recovery.

[3] = system: barrier-disrupted human epidermis; assay: Paracellular flux across tape stripped (barrier-disrupted) human epidermis in the system; assay type: cell-based; conditions: compared with media alone
Description: as §1, §2

[4] = system: murine skin samples (wild type and STAT6 mice); assay: Skin barrier recovery after in vivo tape stripping, murine skin samples mounted in the system; assay type: cell-based; conditions: Pam3CSK4 10 μM; wild type versus STAT6 mice, n=3 each; normalized to WT vehicle control; FIG. 8
Description: For very thin skin samples isolated from rodents or other small mammalians, curettage along the dermal surface of the biopsy can be performed with a blade to minimize the amount of dermis taken. Alternatively, skin can be incubated in ammonium thiocyanate and epidermis removed from dermis. Murine skin can be isolated from any anatomical area, defatted using a surgical blade, cut into smaller samples to mount in the apparatus.
We have also used the present invention in a murine model. Skin barrier recovery after in vivo tape stripping was evaluated in wild type mice as compared to genetically modified mice that expressed a constitutively activated form of STAT6 under the CD2 locus, that results in the enhanced expression of Th2 cytokines (IL-4 and IL-13). Skin samples were collected from the healthy, nonperturbed skin of the back or from an area of the back that underwent tape stripping. The dermis was removed by scraping with a surgical blade and skin samples were mounted in the system. We observed no differences in recovery between the two mice strains. […] All data are normalized to WT vehicle control group. In FIG. 8, ns: not significant; *P<0.05, **P<0.01, ***P<0.001. (WT, n=3; STAT6VT, n=3).

[5] = IL4 (50 ng/ml) and IL13 (50 ng/ml) given together, FIG. 7
[6] = IL17A 50 and 100 ng/ml, 24 h treatment, FIG. 6

Row | Molecule | TEER [2, 5] | paracellular flux [3, 5] | other results
1 | NCCc1c[nH]cn1 [Histamine] | – | – | paracellular flux of fluorescein [1]: enhanced
2 | IL13: human recombinant IL13, Th2 cytokine commonly found in atopic dermatitis | reduced | increased | –
3 | IL17A: human recombinant IL17A, a prototypic cytokine commonly found within the skin lesions of psoriasis | – | – | TEER [2, 6]: increased; paracellular flux [3, 6]: reduced
4 | Pam3CSK4 | – | – | skin barrier recovery [4]: greater recovery in wild type mice
5 | IL4: human recombinant IL4, Th2 cytokine commonly found in atopic dermatitis (protein, UniProt P05112 25-153, looked up) Interleukin-4: HKCDITLQEIIKTLNSLTEQKTLCTELTVTDIFAASKNTTEKETFCRAATVLRQFYSHHEKDTRCLGATAQQFHRHKQLIRFLKRLDRNLWGLAGLNSCPVKEANQSTLENFLERLKTIMREKYSKCSS | reduced | increased | –
